Tests used:
C. glabrata # ATCC 2950 = assay: Checkerboard microdilution MIC of azole and quaternary ammonium salt combinations; type: cell-based, Candida glabrata; conditions: for MIC: Nakaseomyces glabratus, ATCC2950, fluconazole alone or its concentration in the combination
Excerpt: (§1) Interactions between the selected azoles and quaternary ammonium salts (quats) were characterized via changes in minimum inhibitory concentration (MIC) using a checkerboard method in 96-well plates. This method is adapted from the microdilution method outlined in CLSI, M27-A3 (2008), —Reference Method for Broth Dilution Antifungal Susceptibility Testing of Yeasts; Approved Standard—3rd Edition.
(§2) Briefly, X and Y axes were established on the plates to serve as MIC controls for the compounds acting individually. Two-compound interactions were evaluated at the X-Y axis intersection of the two single-drug concentration axes.
(§3) Frozen concentrated stock compound solutions were used as the starting point in making the dilution series. […] One-quarter of the final well volume of the 4× stock was added to the appropriate wells. For wells with a second compound, one-quarter of the final well volume of the second compound was also added. An equivalent volume of culture media was added to wells in which only a single compound was tested.
(§4) Final well volume was either 100 μl or 200 μl depending on assay run. After addition of the 4× stocks and/or media, one-half of the final well volume of 5×10^3 CFU/mL yeast inoculum was added to each test well. Yeast inoculums were made from a 0.5 McFarland-matched culture that had been growing for 4-5 hours at 37° C. in trypticase soy broth (TSB). Each assay plate also included inoculum-only growth control wells (half the final well volume of inoculum plus the other half culture media) and culture media-only control wells. The inoculated plates were cultured aerobically in a humidified 36° C. room air incubator for 18 hours or 24 hours (±1 hour), depending on assay run, at which time growth was scored. The scored plates were then returned to the incubator for an additional 24 hours (±1 hour) of culturing and scored a second time (at 42 or 48 hours total culturing time).
(§5) Unless stated otherwise, yeast growth was scored using the subjective five tier numerical score (NS) scale established in CLSI M27-A3: 4=no reduction in growth relative to control, 3=slight reduction in growth (-25% reduction), 2=prominent decrease in growth (˜50% reduction), 1=slightly hazy growth (-75% reduction), 0 =no visible growth. Growth is scored relative to the on-plate inoculum control.
(§6) The checkerboard plate data was utilized to derive a fractional inhibitory concentration index (FICI) value that scores the interaction between compounds on a three category interaction scale: FICI <0.5 indicates synergy, FICI 0.5-4 indicates no interaction, and FICI >4 indicates antagonism. The FICI equation is: […]

C. albicans #ATCC 10231 = assay: as above; type: cell-based, Candida albicans; conditions: for MIC: Candida albicans
Excerpt: as §1, §2, §3, §4, §5, §6

[1] = TSB media, 48 hours post inoculation, benzalkonium-Cl alone or its concentration in the combination

| Compound | MIC (C. glabrata # ATCC 2950; RPMI media, 48 hours post inoculation) [µg/mL] | MIC (C. glabrata # ATCC 2950; TSB media, 42 hours post inoculation, NS≦2 is efficacious) [µg/mL] | Fluconazole MIC (C. glabrata # ATCC 2950; TSB media, 48 hours post inoculation, fluconazole alone or its concentration in the combination with benzalkonium-Cl) [µg/mL] | MIC (C. albicans #ATCC 10231; ATCC10231, 48 h, RPMI media, 48 hours post inoculation, fluconazole alone or its concentration in the combination) [µg/mL] | MIC (C. albicans #ATCC 10231; ATCC10231, TSB media, 42 hours post inoculation, NS≦2 is efficacious, fluconazole alone or its concentration in the combination) [µg/mL] | MIC (C. albicans #ATCC 10231; ATCC10231, TSB media, 48 hours post inoculation, fluconazole alone or its concentration in the combination with benzalkonium-Cl) [µg/mL] | Benzalkonium-Cl MIC (C. glabrata # ATCC 2950; [1]) [µg/mL] | Benzalkonium-Cl MIC (C. albicans #ATCC 10231; [1]) [µg/mL] |
| --- | --- | --- | --- | --- | --- | --- | --- | --- |
| OC(Cn1cncn1)(Cn1cncn1)c1ccc(F)cc1F [Fluconazole, fluconazole] | 16 | 16 | 16 | 128 | 256 | 64 |  |  |
| benzalkonium chloride [Benzalkonium-Cl] |  |  |  |  |  |  | 1.9 | 3.8 |

From patent US20150182527A1, “COMPOSITIONS, DEVICES AND METHODS OF TREATING INFECTIONS” (COOK MEDICAL TECHNOLOGIES LLC, priority 2014, published 2015)
